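These data come from cells grown in 96-well plates and exposed to compound for 48 hours at five concentrations. The concentration for 50% growth inhibition is given as GI50. The concentration for full growth arrest is given as TGI.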

Some test systems named below: MOLT-4 leukemia; SNB-19 CNS; U251 CNS; CAKI-1 renal; SF-295 CNS; M14 melanoma; 786-0 renal; K-562 leukemia; SN12C renal; NCI-H23 lung.
Test in all cases: inhibition of tumour cell growth, NCI panel, 48 h

As to `Clc1ccc(N=CNc2ccc(-c3nc4ccccc4o3)cc2)cc1`, the GI50 is 60.7 µM with MOLT-4 leukemia; 35.8 µM with SNB-19 CNS; 23.4 µM in the experiment on U251 CNS; 15.5 µM in the experiment on CAKI-1 renal; 19.4 µM in the experiment on SF-295 CNS; 56.4 µM in the experiment with M14 melanoma. Further, the GI50 was 34.6 µM in the experiment on 786-0 renal, 32.6 µM with K-562 leukemia and 36.7 µM with SN12C renal. The TGI was > 100 µM with MOLT-4 leukemia; > 100 µM in the experiment with SNB-19 CNS; 91.3 µM with U251 CNS; 39.2 µM with CAKI-1 renal; 45.9 µM in the experiment on SF-295 CNS; > 100 µM in the experiment on M14 melanoma. The TGI in the experiment on 786-0 renal, with K-562 leukemia and in the experiment on SN12C renal was > 100 µM each time.
On to `CCOc1ccccc1NC(=O)C(=O)Cc1nc2ccccc2s1`, for which the TGI with MOLT-4 leukemia, in the experiment with SNB-19 CNS, in the experiment with U251 CNS, in the experiment on CAKI-1 renal, with SF-295 CNS and in the experiment with M14 melanoma was > 100 µM throughout. For the same compound, the TGI in the experiment on NCI-H23 lung, in the experiment with 786-0 renal and with SN12C renal was > 100 µM throughout.
For `C=CCN1CC2CON(C(=O)C(OC)(c3ccccc3)C(F)(F)F)C2C1C(C)C` (stereo not given), the GI50 is 15 µg/mL with MOLT-4 leukemia; 54.5 µg/mL with SNB-19 CNS; 29.8 µg/mL in the experiment on U251 CNS; 35.7 µg/mL in the experiment on SF-295 CNS; 30.3 µg/mL in the experiment on M14 melanoma; 37.4 µg/mL with NCI-H23 lung. Also, the GI50 in the experiment on 786-0 renal is 26.7 µg/mL; with SN12C renal, 41.9 µg/mL. The compound further gave a TGI in the experiment on MOLT-4 leukemia of 46.6 µg/mL.
`CC(=O)OC1C2CCC1C1C2C2(Cl)C(Cl)=C(Cl)C1(Cl)C2(Cl)Cl` (stereo not given): the TGI in the experiment with MOLT-4 leukemia worked out at 26.4 µM; with SNB-19 CNS, 28.6 µM; in the experiment on U251 CNS, 26.2 µM; in the experiment on CAKI-1 renal, 27 µM; with SF-295 CNS, 23.7 µM; in the experiment with M14 melanoma, 25.3 µM. The results for the TGI in the experiment on NCI-H23 lung, with 786-0 renal and with SN12C renal were 25.8 µM, 27.1 µM and 28.4 µM, respectively.
Consider `CCN(CC)c1cc2oc3cc(N)cc(=N)c-3nc2cc1C`, for which the GI50 in the experiment with SNB-19 CNS is 5.46 µM; in the experiment with U251 CNS it was 3.13 µM; in the experiment on CAKI-1 renal, 1.65 µM; with SF-295 CNS, 1.85 µM; in the experiment with M14 melanoma it was 2.25 µM; in the experiment on NCI-H23 lung, 2.11 µM. Moreover, the GI50 is 11.2 µM in the experiment with 786-0 renal and 1.94 µM in the experiment on SN12C renal. Besides, the TGI with SNB-19 CNS was 32 µM; in the experiment with U251 CNS it was 14.7 µM; in the experiment on CAKI-1 renal, 6.78 µM; in the experiment on SF-295 CNS it was 5.19 µM; with M14 melanoma it was 4.92 µM; in the experiment on NCI-H23 lung, 17.9 µM. Besides, the TGI with 786-0 renal stood at 70.1 µM; in the experiment with SN12C renal, 6.13 µM.
Turning to `Cc1cccc(N=C2NC(=O)C(CC(=O)Nc3cccc(C)c3C)S2)c1` (stereo not given), the TGI in the experiment on MOLT-4 leukemia, in the experiment on SNB-19 CNS, with U251 CNS, in the experiment on SF-295 CNS, in the experiment on M14 melanoma and in the experiment with NCI-H23 lung was > 100 µM throughout. The TGI in the experiment with 786-0 renal and in the experiment with SN12C renal was > 100 µM each time.
Consider `CN(C)CCSc1nccc(-c2cc3ccccc3s2)n1`, for which the TGI in the experiment with MOLT-4 leukemia turned out to be 66.1 µM; in the experiment with U251 CNS it was 57.1 µM; in the experiment with CAKI-1 renal, 56.7 µM; in the experiment on SF-295 CNS, 31 µM; with M14 melanoma it was 32.3 µM; with 786-0 renal, 63.4 µM. Moreover, the TGI in the experiment on SN12C renal is > 100 µM.
`O=C1CSC(c2ccc(-c3nc4ccccc4s3)cc2)=N1`: the GI50 with SNB-19 CNS is 72.7 µM; in the experiment on U251 CNS, 28 µM; in the experiment with CAKI-1 renal, 17.4 µM; with SF-295 CNS, 20.9 µM; in the experiment on M14 melanoma it was 38.6 µM; with 786-0 renal it was 77.2 µM. The GI50 was 16.7 µM in the experiment with K-562 leukemia and 36.9 µM in the experiment on SN12C renal. Moreover, the TGI in the experiment with SNB-19 CNS, in the experiment on U251 CNS, in the experiment with CAKI-1 renal, in the experiment on SF-295 CNS, in the experiment on M14 melanoma and in the experiment on 786-0 renal was > 100 µM throughout. Besides, the TGI came to 50.4 µM in the experiment with K-562 leukemia and 99.4 µM with SN12C renal.
For the compound `CC(C)C1=C2CCC3(C)C(CCC4C5C6OCC5(CCC6(C)C)CCC43C)C2(C)CC1` (stereo not given), the TGI was found to be 34.6 µM in the experiment with MOLT-4 leukemia; 98.6 µM with SNB-19 CNS; 37 µM with U251 CNS; 38.3 µM in the experiment with CAKI-1 renal; 34.5 µM in the experiment on SF-295 CNS; 41.6 µM in the experiment with M14 melanoma. For the same compound, the figures for the TGI with NCI-H23 lung, in the experiment with 786-0 renal and in the experiment on SN12C renal were 54.5 µM, 33.7 µM and 29.9 µM, respectively.
For the compound `Nc1ccc2[nH]cc(CCC(=O)O)c2c1`, the TGI with MOLT-4 leukemia, with SNB-19 CNS, with U251 CNS, in the experiment on CAKI-1 renal, with SF-295 CNS and with M14 melanoma was > 100 µM each time. Besides, the TGI in the experiment with NCI-H23 lung, in the experiment on 786-0 renal and in the experiment on SN12C renal was > 100 µM throughout.

For the origin of these results see PubChem BioAssay (NCI).
